The subject of this test is PSMA+HEK cells. Description: Two-color flow cytometry ADCP (CD64) assay with mAb on PSMA+HEK cells. The format is cell-based, human. An excerpt: ADCP flow cytometry experiments were run on a BD LSRII Flow Cytometer. The human IgG isotype control used was purchased from Jackson ImmunoResearch (009-000-003). The human IgG1 monoclonal anti-DNP antibody (mAb) was purchased from acrobiosystems (DNP-M2). PSMA expression was confirmed with an anti-PSMA antibody Alexa 647 conjugate (Novus Biologicals, Catalog #FAB4234R). For PSMA competition controls, PMPA was purchased from Sigma (SML1612). Hek-293T (PSMA+/−) cell lines were generously given by Dr. Cyril Barinka (Institute of Biotechnology CAS, Czech Republic). U937 cells were generously given by Dr. John Valliant (McMaster University, Canada). LNCaP cells were generously given by Dr. Karen Mossman (McMaster University, Canada). IFN-γ was purchased from Fischer Scientific (PHC4031). Ultra low IgG FBS was purchased from Fischer Scientific (A3381901). RPMI-1640 was purchased as a powder from Fischer Scientific (31800089) and resuspended. DMEM was purchased as a powder from Fischer Scientific (12800082) and resuspended. […]
For preparation of effector monocytes, 24 hours prior to inducing phagocytosis U937 monocytes were seeded at 500,000 cells/mL and activated with IFN-γ ([…]). After incubation, these cells were then counted and washed twice with serum free assay media (neat RPMI). […] These cells were then counted and washed twice with serum free assay media (neat RPMI). […]
Background: In flow cytometry, cells or beads pass a laser one at a time.

In the case of `O=C(O)CC[C@H](NC(=O)N[C@@H](CCCCNC(=O)NCCOCCOCCOCCOCCOCCOCCOCCOC(=O)n1cnc(CCNC(=O)CNc2ccc([N+](=O)[O-])cc2[N+](=O)[O-])c1)C(=O)O)C(=O)O` [CIR 3], the “CD64 based target immune recognition (phagocytosis)” value is given as “substantial functional enhancement relative to ARM 11 across all antibody concentrations tested”.

(Values after patent US11827624B2, “Covalent immune recruiter compounds for immune cell recognition and associated uses” (McMaster University, priority 2020, dated 2023).)
